This is an account of results in patent publication USRE48842E1, “Pyrimido-pyrrolo-oxazine-dione compound inhibitors of the cystic fibrosis transmembrane conductance regulator protein and uses therefor” (The Regents of the University of California, priority 2011, dated 2021).

For one assay, the target named is human wildtype CFTR (Homo sapiens, UniProt P13569). Kind of assay: Fluorescence plate reader assay of CFTR inhibition (iodide influx). The assay is classed as cell-based. Also noted: expressed in transfected cells; host or cells: Fischer rat thyroid (FRT) cells. Particulars: Determined by micro-plate reader assay; FRT cells co-expressing human wild type CFTR and YFP-H148Q. The procedure:
Cell Culture and Plate Reader Assay of CFTR Inhibition—Fischer rat thyroid (FRT) cells co-expressing human wild type CFTR and the halide indicator YFP-H148Q were cultured in 96-well black-walled microplates (Corning Costar) at a density of 20,000 cells per well in Coon's modified F12 medium containing 10% fetal bovine serum, 2 mM L-glutamine, 100 U/mL penicillin and 100 μg/mL streptomycin. CFTR chloride conductance was assayed at 48 h after plating on a FluoStar fluorescence plate reader (BMG Lab Technologies) as described (see, e.g., Ma et al., J Clin Invest. 2002, supra). Each well was washed 3 times with PBS, leaving 60 μL PBS. Test compounds were added and incubated with the cells for 45 min. Then, 5 μL of a CFTR-activating cocktail (10 μM forskolin, 100 μM IBMX, 20 μM apigenin in PBS) was added. After 15 min, each well was assayed for iodide influx by recording fluorescence continuously (200 ms per point) for 2 s (baseline) and then for 10 s after rapid addition of 160 μL of isosmolar PBS in which 137 mM chloride was replaced by iodide. The initial rate of iodide influx was computed from fluorescence data by non-linear regression.
Initial testing of the compounds for the capability to inhibit CFTR was performed using a plate-reader assay in which iodide influx was measured in FRT cells co-expressing human wild type CFTR and the iodide-sensing yellow fluorescent protein YFP-H148Q/1152L. […] Table B below provides IC50 values for PPQ and BPO compounds.
The relative IC50 values obtained from the plate reader assay are useful for comparisons. Absolute IC50 values obtained from the plate-reader assay are approximate, generally underestimating compound potency because of assay non-linearities, pH-dependent YFP fluorescence, the use of iodide instead of chloride, and compound dilution at the start of the assay (see, e.g., Galietta et al., Am. J. Physiol. Cell Physiol. 281:C1734-42 (2001)).

For assay [1], the system named is E13.5 embryonic kidneys. Kind of assay: Embryonic kidney organ culture model of PKD (8-Br-cAMP-induced cyst growth). The assay is classed as cell-based, mouse. The procedure: Embryonic Organ Culture Model of PKD—Mouse embryos were obtained at embryonic day 13.5 (E13.5). Metanephroi were dissected and placed on transparent Falcon […] porous cell culture inserts as described (see, e.g., Tradtrantip et al., J. Med. Chem. 2009, supra). To the culture inserts was added DMEM/Ham's F-12 nutrient medium supplemented with 2 mM L-glutamine, 10 mM HEPES, 5 μg/mL insulin, 5 μg/mL transferrin, 2.8 nM selenium, 25 ng/ml prostaglandin E, 32 pg/ml T3, 250 U/ml penicillin, and 250 μg/ml streptomycin. Kidneys were maintained in a 37° C. humidified CO2 incubator for up to 8 days. Culture medium containing 100 μM 8-Br-cAMP, with or without test compound, was replaced (in the lower chamber) every 12 h. Kidneys were photographed using a Nikon inverted microscope (Nikon TE 2000-S) equipped with 2× objective lens, 520 nm bandpass filter, and high-resolution CCD camera. Percentage cyst area was calculated as total cyst area divided by total kidney area.
An established embryonic ex vivo kidney organ culture model of PKD was used to test BPO-27 (racemic mixture of R and S forms) efficacy in reducing cAMP agonist-induced renal cystogenesis (see Example 30). […]

Assay [2] concerns E13.5 embryonic kidneys. Particulars: from Tradtrantip et al., J. Med. Chem. 2009; read-out: IC50 for inhibition of cyst growth; cited from earlier work.
Another assay addresses CFTR (Homo sapiens, UniProt P13569). Particulars: literature values; read-out: IC50 for CFTR inhibition; cited from earlier work.

Like-named read-outs stand apart in the source and are kept apart here.

Sequence of human wildtype CFTR (P13569 whole entry): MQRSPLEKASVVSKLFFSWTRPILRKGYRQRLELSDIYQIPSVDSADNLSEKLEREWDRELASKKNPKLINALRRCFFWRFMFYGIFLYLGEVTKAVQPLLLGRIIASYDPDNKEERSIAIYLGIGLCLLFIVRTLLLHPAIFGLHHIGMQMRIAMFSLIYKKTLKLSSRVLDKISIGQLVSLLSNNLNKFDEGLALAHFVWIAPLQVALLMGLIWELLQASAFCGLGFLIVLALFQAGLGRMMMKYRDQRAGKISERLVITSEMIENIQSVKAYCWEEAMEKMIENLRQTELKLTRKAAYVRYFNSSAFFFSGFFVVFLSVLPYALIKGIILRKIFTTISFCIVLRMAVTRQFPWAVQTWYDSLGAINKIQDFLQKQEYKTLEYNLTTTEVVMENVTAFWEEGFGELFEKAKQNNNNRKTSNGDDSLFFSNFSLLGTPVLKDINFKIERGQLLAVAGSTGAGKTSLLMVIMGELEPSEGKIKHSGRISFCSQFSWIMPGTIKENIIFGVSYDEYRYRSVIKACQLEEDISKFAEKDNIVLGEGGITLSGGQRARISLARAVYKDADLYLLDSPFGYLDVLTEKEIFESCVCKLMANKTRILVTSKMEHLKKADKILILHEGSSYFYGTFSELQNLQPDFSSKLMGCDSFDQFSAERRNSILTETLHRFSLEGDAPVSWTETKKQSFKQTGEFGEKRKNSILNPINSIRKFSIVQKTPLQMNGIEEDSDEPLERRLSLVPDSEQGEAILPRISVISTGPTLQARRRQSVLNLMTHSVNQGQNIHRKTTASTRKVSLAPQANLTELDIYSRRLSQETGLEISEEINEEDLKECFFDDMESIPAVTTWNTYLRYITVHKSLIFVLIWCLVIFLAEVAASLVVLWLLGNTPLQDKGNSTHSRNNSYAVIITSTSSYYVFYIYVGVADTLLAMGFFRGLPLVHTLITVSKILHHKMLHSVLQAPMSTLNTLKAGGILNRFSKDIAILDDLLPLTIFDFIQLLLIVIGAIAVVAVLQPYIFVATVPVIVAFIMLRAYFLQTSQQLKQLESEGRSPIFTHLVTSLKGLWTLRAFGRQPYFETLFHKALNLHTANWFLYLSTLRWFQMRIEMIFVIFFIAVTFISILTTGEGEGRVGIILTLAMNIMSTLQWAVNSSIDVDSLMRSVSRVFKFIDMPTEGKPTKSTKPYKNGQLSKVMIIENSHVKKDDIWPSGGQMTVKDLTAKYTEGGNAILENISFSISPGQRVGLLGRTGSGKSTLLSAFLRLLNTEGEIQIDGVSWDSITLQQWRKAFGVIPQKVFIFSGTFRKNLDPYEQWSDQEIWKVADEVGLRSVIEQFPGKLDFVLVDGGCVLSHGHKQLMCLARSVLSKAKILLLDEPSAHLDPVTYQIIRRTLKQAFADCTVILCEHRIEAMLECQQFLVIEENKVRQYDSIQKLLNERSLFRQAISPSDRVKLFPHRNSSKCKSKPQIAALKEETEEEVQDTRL
Sequence of CFTR (P13569 whole entry, species assumed): as the sequence (P13569 whole entry) above

Regarding `Cn1c(=O)c2c(-c3ccccc3)n3c(c2n(C)c1=O)C(c1ccc(Br)o1)Oc1ccc(C(=O)O)cc1-3` (racemic) [BPO-27, 6-(5-Bromofuran-2-yl)-7,9-dimethyl-8,10-dioxo-11-phenyl-7,8,9,10-tetrahydro-6H-benzo[b]pyrimido[4′,5′:3,4]pyrrolo[1,2-d][1,4]oxazine-2-carboxylic acid], the IC50 against human wildtype CFTR is 40 nM; in the assay with E13.5 embryonic kidneys [1] (Mus musculus, 100 μM 8-Br-cAMP, racemic mixture, read-out: IC50 for inhibition of cyst growth (percentage area occupied by cysts)) it was about 100 nM. The “cyst growth in 8-Br-cAMP-treated kidney (in words)” value with E13.5 embryonic kidneys [1] (compound in culture medium, 0.1 or 1 μM) is reported as “remarkably reduced”.
As to `Cc1ccc(C2Nc3ccccc3-n3c(-c4ccccc4)c4c(=O)n(C)c(=O)n(C)c4c32)o1` (stereo not drawn) [PPQ-102, 7,9-Dimethyl-6-(5-methylfuran-2-yl)-11-phenyl-5,6-dihydropyrimido[4′,5′-3,4]pyrrolo[1,2-a]quinoxaline-8,10-(7H,9H)-dione, reference compound], the IC50 was 250 nM against human wildtype CFTR, over 500 nM with E13.5 embryonic kidneys [2] and about 90 nM on CFTR.
